The conditions of series [1]: cited from earlier work.
For series [2] the following is noted: parent compounds, literature; read-out: Ca^2+ dissociation constant of parent compounds; cited from earlier work.
Series [3] is described as follows: Absorbance and fluorescence properties in the presence and absence of Ca2+. It counts as physicochemical. The protocol:
FIG. 4. Excitation (A) and emission (B) spectra for fluo-3 at 22°±2° C. in buffers with free Ca^2+ values ranging from <1 nM to 58 microM. The titration was done starting with 3.5 ml of 100 mM KCl, 10 mM K-MOPS, 10 mM K2 H2 EGTA, 15 microM fluo-3, pH 7.03. The "O" Ca spectrum was recorded, then to reach n mM CaEGTA, (10-n) mM EGTA, n=1-10, aliquots of 3.5/(11-n) ml were iteratively discarded and replaced by equal volumes of 100 mM KCl, 10 mM K-MOPS, 10 mM K2 CaEGTA, 15 microM fluo-3, pH 7.0. After each iteration the pH (range 6.99 to 7.05) and spectra were recorded; each spectrum is labeled by the calculated free Ca^2+ in micromolar. The excitation and emission bandwidths were 1.9 nm and 4.6 nm respectively. All spectra have been normalized with respect to the peak of the 58 microM (n=10) curve. In A, emission was collected at 530 nm, and the excitation was corrected for lamp and monochromator characteristics using a rhodamine B quantum counter. In B, excitation was at 490 nm, and the emission spectrum is uncorrected for monochromator and detector sensitivity. The slightly low amplitude of the curve at 3.6 microM [Ca^2+ ] is probably due to a small error in resetting the excitation monochromator to 490 nm.
(§1) FIG. 6. The product of fluorescence quantum efficiency and extinction coefficient vs. free [Ca^2+ ] (note log axes for both) for quin-2, fura-2, indo-1, rhod-2, and fluo-3. All data are for room temperature, 0.1 M KCl, no added Mg^2+. […] The curve for fluo-3 used the data of Table I with extinction coefficients of 7.5×10^4 to 8.35×10^4 at 506 nm; the curve for rhod-2 assumed a Ca^2+ -independent extinction coefficient of 1×10^5 M^-1 cm^-1.
Examples of the synthetic routes than can be used to produce the new dyes of the present invention are outlined in FIGS. 2 and 3. Full descriptions of the reaction conditions are described below under the section entitled Compound Synthesis. Optical spectra were measured as described by Grynkiewicz, et al. (1985). (See ref. 9.) Quantum efficiencies of fluorescence were obtained (see ref. 10) by comparing the integral of the corrected emission spectrum of the test sample with that of a solution of rhodamine B in ethanol, quantum efficiency assumed to be 0.97 (see ref. 11), or fluorescein in 0.1 M NaOH, quantum efficiency 0.91 (see ref. 10). The concentration of the reference dye was adjusted to match the absorbance of the test sample at the wavelength of excitation.
The absorbance and fluorescence properties for the new indicators in the presence and absence of Ca^2+ are shown in Table I. The absorbance spectra were much as one would expect for rhodamine or fluorescein chromophores, though extinction coefficients (not shown) were often low in the dyes as initially isolated. Because fluo-3 appeared to be a very useful indicator compound, extra effort was expended in its purification. Eventually, quite respectable extinction coefficients were obtained, 7.9×10^4 and 8.3×10^4 M^-1 cm^-1 at 503 and 506 nm, respectively for free and Ca^2+ -bound fluo-3. Ca^2+ binding was expected to shift the absorbance maxima to longer wavelengths,since it would prevent the BAPTA amino nitrogen from donating electron density to the 9-position of the xanthene. Electron-withdrawal and donation to the central carbon of triphenylmethane dyes are known to shift absorbance peaks to longer and shorter wavelengths, respectively (see ref. 19). Indeed, Ca^2+ binding caused red shifts, but of very small magnitude, 1-3 nm, and with little change in peak height.
Fluo-3 has a visibly pinkish tinge because its chlorine atoms shift its spectra to wavelengths slightly longer than those of fluo-2, just as 2,7-dichlorofluorescein is bathochromically shifted from fluorescein. […] Thus the Ca^2+ complex of fluo-3 fluoresced 35- to 40-fold more brightly than the Ca^2+ -free dye (see FIG. 4). This degree of enhancement is the greatest yet reported for a fluorescent Ca^2+ indicator. […]

The conditions of series [4]: for Kd: read-out: Effective dissociation constant Kd for Ca^2+, pH 7.0-7.5, ionic strengths 0.1-0.15.
Experimental: For measurement of Ca^2+ dissociation constants at pH 7.0-7.5, free [Ca^2+ ] levels were controlled by Ca^2+ /EGTA, Ca^2+ /HEEDTA and Ca^2+ /NTA buffers (see ref. 12) The apparent dissociation constant for the Ca^2+ EGTA complex was taken as 327 nM at pH 7.03 in 100 mM KCl, 20° C. The logarithms of the apparent dissociation constants for the Ca^2+ HEEDTA and Ca^2+ NTA complexes were calculated to be 1.70 - pH and 3.41 - pH, respectively, at room temperature in 0.1 M KCl. To test the pH dependence of the apparent Ca^2+ -dissociation constant of fluo-3 (see FIG. 4), it was necessary to vary pH from 5.6 to 8 while maintaining constant free Ca^2+. EGTA, HEEDTA, and NTA are too pH-dependent to cover this pH range, so dibromo-BAPTA (chelator 2c of ref 13) was used instead. […] To compensate for that small dependence, the pH titration was started from pH 5.6 with the appropriate amount of Ca^2+ in the buffer. Then, at each higher pH, the appropriate small addition of CaCl2 was made to compensate for the increase in the effective Ca^2+ affinity of the dibromo-BAPTA.
Series [5] can be described thus: Product of fluorescence quantum efficiency and extinction coefficient vs free [Ca2+] (FIG. 6). It is filed as physicochemical.
Source text: as §1
Whereas fura-2 and indo-1 were clearly much more intensely fluorescent than quin-2, enabling measurements with much less added dye and Ca^2+ buffering, comparison of the brightness of the new dyes with that of fura-2 and indo-1 is more complex of the different operating wavelengths. The simplest measure of the intrinsic brightness of a fluorophore is the product of its emission quantum efficiency and its extinction coefficient at the appropriate excitation wavelength (see FIG. 6). At the present time, extinction coefficients are known only for fluo-3, though one may estimate the values for the other indicators from purified model xanthene dyes (9-10×10^4 M^-1 cm^31 1). For fluo-3, the quantum efficiency×extinction coefficient ranges from 3×10^3 to 1.5×10^4 M^-1 cm^-1 for Ca^2+ values from 10^-7 M up to saturation, slightly less than the corresponding values for fura-2 excited at 340 nm, 5×10^3 to 1.6× 10^4 M^-1 cm^-1 (see FIG. 6). However, it is easier to generate higher excitation intensities at longer wavelengths, and autofluorescence will be lower, so the actual concentrations of dye needed to overcome dark current and autofluorescence may be fairly similar for the two families. On the other hand, the relatively small separation between excitation and emission peaks of the new dyes makes more stringent demands on monochromators and filters to exclude scattered light.
The Ca^2+ affinities of the new dyes are two to ten-fold weaker than those of their UV-excited predecessors. […]

The nature of series [6]: Mg2+ dissociation constant in Mg2+/EGTA buffers.
Experimental: Free [Mg2+] was controlled by Mg^2+ /EGTA buffers assuming an apparent dissociation constant for the Mg^2+ /EGTA complex (including its monoprotonated form) of 6 mM at pH 7.60, 0.12 M ionic strength, 20°, as calculated from the data of Martell & Smith (see ref. 12).
Series [7] in a line: Photochemical stability, xenon arc illumination of air-saturated solutions. It counts as physicochemical. An excerpt: Fluo-3 was briefly checked for photochemical stability. […] Since the biological usability of fluorescein is well established, the photochemical resistance of fluo-3 would seem to be adequate if not outstanding.
For series [8] the following is noted: cited from earlier work; for Kd: room temperature, 0.1 M KCl, no added Mg^2+, read-out: Ca^2+ dissociation constant (Kd) used for FIG. 6.

The structures appear in SMILES notation. Where two headings read alike, the source gives them in different places.

For the compound `O=c1ccc2c(-c3ccccc3)c3ccc(O)cc3oc-2c1` [9-phenylfluorone], the “Quantum efficiency of model compound” value in [1] is reported as 0.21.
Take `O=C(O)CN(CC(=O)O)c1ccccc1OCCOc1ccccc1N(CC(=O)O)CC(=O)O` [BAPTA, 1,2-bis(2-amino-phenoxy)ethane N,N,N',N'-tetraacetic acid]: the Kd in series [2] is 0.11 µM.
For `Cc1ccc(N(CC(=O)O)CC(=O)O)c(OCCOc2cc(-c3c4ccc(=O)cc-4oc4cc(O)ccc34)c(O)cc2N(CC(=O)O)CC(=O)O)c1` [fluo-1, 9-(6-hydroxy-4-bis(carboxymethyl)amino-3-(2-(2-bis(carboxymethyl)amino-5-methylphenoxy)ethoxy)phenyl)-6-hydroxy-3H-xanthen-3-one], the “pH dependence of fluorescence” value is listed as “some pH dependence”. Further, in series [3], the “Fluorescence maxima, emission, with excess Ca” value (“Fluorescence maxima, emission” below) turned out to be 521 nm; the “Fluorescence maxima, excitation, with excess Ca” value (“Fluorescence maxima, excitation” below) is 499 nm; the “Fluorescence quantum efficiency, excess Ca” value is given as “.014”; the “Fluorescence ratio, excess vs. zero Ca” value is 3.3. Moreover, the “Fluorescence quantum efficiency, zero Ca” value in series [3] is “.0042”. The Kd in series [4] was determined as 0.7 µM. In addition, in [4] (vs rhod-2 and fluo-2), the “Lowering of Ca^2+ affinity by hydroxy group vs unsubstituted rhod-2 and fluo-2” value is reported as “more than two-fold”.
For `Cc1ccc(N(CC(=O)O)CC(=O)O)c(OCCOc2cc(-c3c4ccc(=O)cc-4oc4cc(O)ccc34)ccc2N(CC(=O)O)CC(=O)O)c1` [fluo-2, 9-(4-bis(carboxymethyl)amino-3-(2-(2-bis(carboxymethyl)amino-5-methylphenoxy)ethoxy)phenyl)-6-hydroxy-3H-xanthen-3-one], in [3], the “Fluorescence maxima, emission” value came out at 518 nm; the “Fluorescence maxima, excitation” value was 493 nm; the “Fluorescence quantum efficiency, excess Ca” value is “.125”; the “Fluorescence ratio, excess vs. zero Ca” value is 31. Besides, the “Fluorescence quantum efficiency, zero Ca” value in series [3] is “.004”. Further, the Kd in series [4] was found to be 0.37 µM. For the same compound, under “absence of Ca^2+”, the “Fluorescence quenching on titration from pH 7.7 to 4.1” value was “almost completely quenched”; the “Ratio between the brightness of the deprotonated and the protonated species” value turned out to be 67.
Consider `Cc1ccc(N(CC(=O)O)CC(=O)O)c(OCCOc2cc(-c3c4cc(Cl)c(=O)cc-4oc4cc(O)c(Cl)cc34)ccc2N(CC(=O)O)CC(=O)O)c1` [fluo-3, 9-(4-bis(carboxymethyl)amino-3-(2-(2-bis(carboxymethyl)amino-5-methylphenoxy)ethoxy)phenyl)-2,7-dichloro-6-hydroxy-3 H-xanthen-3-one], for which, in series [3] (503 nm, free), the “Extinction coefficient, free dye” value was 79000 M⁻¹ cm⁻¹. For the same compound, in [3] (506 nm, Ca^2+-bound), the “Extinction coefficient, Ca^2+-bound dye” value is 83000 M⁻¹ cm⁻¹. In addition, the “Fluorescence enhancement, Ca^2+ complex vs Ca^2+-free dye” value in series [3] (Ca^2+ complex vs free dye) is on record as 40 fold. In addition, in series [3], the “Fluorescence maxima, emission” value is reported as 526 nm; the “Fluorescence maxima, excitation” value worked out at 506 nm; the “Fluorescence quantum efficiency, excess Ca” value is listed as “.183”; the “Fluorescence ratio, excess vs. zero Ca” value is 36-40. The “Fluorescence quantum efficiency, zero Ca” value in [3] is listed as “.0051”. In series [4], the “Effect of added chlorines on Ca^2+ affinity” value is on record as “very little effect” and the Kd worked out at 0.45 µM. The “[Ca^2+] giving double the fluorescence at zero [Ca^2+]” value in series [5] is reported as 11 nM. Moreover, the “Conversion to Ca^2+ complex at 11 nM [Ca^2+]” value in series [5] (11 nM [Ca^2+]) is given as 2.5%. The “Brightness of Ca^2+ complex relative to free dye (in words)” value in series [5] (Ca^2+ complex vs free dye) is “forty-fold brighter”. Also, for the setting “100 mm kcl, tris-mops”, the “Amino pKa, independent rough confirmation from intermediate [Ca^2+] curves” value was “about 6.2”; the “pKa of amino nitrogen” value was “about 6.2”; the “pKa of chromophore (absorbance spectrum or fluorescence amplitude of Ca^2+-complex)” value was 4.5-4.6. For the same compound, for the setting “Ca^2+-free, maximal”, the “Increase of fluorescence of Ca^2+-free dye, pH 8 to pH 5” value is at most 3 fold. Further, the “Effectiveness of intermediate Ca^2+ at enhancing fluorescence at pH 6.1-6.2 vs pH ~8” value (pH about 6.1-6.2 vs pH ~8) is listed as “about half as effective”. In addition, the “Effect of Mg^2+ binding on chelator fluorescence” value in [6] is “relatively little effect”. In [6] (Mg^2+ binding), the “Fluorescence enhancement by Mg^2+ binding” value is reported as “about 1.4 fold”. Also, the Kd in [6] (read-out: Mg^2+ dissociation constant, 25°, 0.1-0.15 M ionic strength) amounted to 9000 µM. For the same compound, the “Photobleaching rate, Ca^2+ complex” value in series [7] (Ca^2+ complex) is listed as “bleached about half as quickly”. The “Photobleaching rate, Ca^2+-free” value in series [7] (Ca^2+-free) is listed as “bleached at about the same rate as ordinary fluorescein anion”.
In the case of `O=C1OC2(c3ccc(O)cc3Oc3cc(O)ccc32)c2ccccc21` [fluorescein], the “Quantum efficiency of reference dye in 0.1 M NaOH” value in series [1] (0.1 M NaOH) is 0.91.
As to `Cc1ccc(N(CC(=O)O)CC(=O)O)c(OCCOc2cc(-c3cc4ccc(C(=O)O)cc4[nH]3)ccc2N(CC(=O)O)CC(=O)O)c1` [indo-1], the Kd in series [8] was 0.25 µM.
`COc1cc(N(CC(=O)O)CC(=O)O)c2nc(COc3cc(C)ccc3N(CC(=O)O)CC(=O)O)ccc2c1` [quin-2, 2-[[2-[bis(carboxymethyl)amino]-5-methylphenoxy]-6-methoxy-8-bis(carboxymethyl)amino]quinolline]: in series [8] (339 nm, independent of Ca^2+), the Extinction coefficient at 339 nm is 4600 M⁻¹ cm⁻¹. In addition, in [8], the Kd was 0.078 µM.
With `Cc1ccc(N(CC(=O)O)CC(=O)O)c(OCCOc2cc(-c3c4ccc(=[N+](C)C)cc-4oc4cc(N(C)C)ccc34)ccc2N(CC(=O)O)CC(=O)O)c1` [rhod-2], in series [3], the “Fluorescence maxima, emission” value came to 576 nm; the “Fluorescence maxima, excitation” value is 553 nm; the “Fluorescence quantum efficiency, excess Ca” value is recorded as “.102”; the “Fluorescence ratio, excess vs. zero Ca” value was 3.4. Also, the “Fluorescence quantum efficiency, zero Ca” value in series [3] is recorded as “.03”. In addition, the Kd in [4] amounted to 1 µM.
On to `CCN(CC)c1ccc2c(-c3ccccc3C(=O)O)c3ccc(=[N+](CC)CC)cc-3oc2c1` [rhodamine B], for which the “Quantum efficiency of reference dye in ethanol” value in series [1] (in ethanol) was 0.97.

The record behind these values is patent publication US5049673A, “Fluorescent indicator dyes for calcium working at long wavelengths” (The Regents of the University of California, priority 1987, dated 1991).
